In patent US10448635B2, “Modulation of plant biology” (FBSCIENCES HOLDINGS, INC., priority 2012, dated 2019):

Tests used:
Format in all cases: in vivo
[1] = test system: tomato plants (Lycopersicon es.); test: Experiment Salt-1: CPPA/NaCl composition, foliar application; settings: NaCl 2600 mg/ha
Description: Experiment Salt-1: […] There were a total of 5 treatments plus an untreated check, each with 10 replicates per treatment arranged in a randomized block design. […] Each treatment comprised samples treated with CPPA alone, salt alone, or CPPA plus salt. Two rates of CPPA were used; the first was equivalent to 520 mg of TOC per hectare and a second equivalent to 1040 mg of TOC per hectare. Salt was applied at a rate equivalent to 2.6 g of salt per hectare. All treatments were diluted with water to provide a final spray volume equivalent to 208 lit per hectare, made with a spray bottle, with just enough spray solution to wet the leaf surface of each plant. Ten days after treatment the plants were assessed for vigor, leaf number, plant height, plant weight, root weight, shoot weight, and leaf conductance using a SPAD meter and are summarized in Table 8 and depicted in FIGS. 10-16.

plants and/or seeds = test: Summary observations: CPPA treated with cation exchange resin, Fe alone and Fe added back; settings: seed treatment
Description: The plant biological response was generally observed to be better when a stoichiometric amount of Fe was added back (relative to the amount of CPPA or its TOC value) rather than an excess amount. […] These observations support the premise that the combination of CPPA and Fe are synergistic in their interaction and biological effect on plants and/or seeds.

[2] = test system: tomato plants (Lycopersicon es.); test: Experiment Fe-4: foliar CPPA, Fe (FeSO4) or CPPA and Fe on tomato plants; settings: for Leaf # / Vigor / Plt. Ht. / Plt. Wt. / Root Wt. / Shoot Wt.: tomato, foliar
From the text: Experiment Fe-4: The purpose of this experiment was to determine if the addition of low levels of iron to a CPPA sample containing lower than typical amounts of iron (e.g., Fe/TOC=0.135) would increase the biological response of plants. Nominal Fe/TOC ratios for CPPA range from 0.10 to 0.28 but the optimum ratio for “as-is” samples of CPPA, as determined in the previous experiments, is between 0.2 and 0.25. Thus, for this experiment, non-agrochemically effective amounts of iron were combined with CPPA samples. Tomato plants (Lycopersicon es.) were produced from seed and transplanted into 3 inch by 3 inch pots. There were 16 treatments plus an untreated check with 20 replicates per treatment arranged in a Randomized Complete Block design. Pots were treated with water (UTC), or CPPA only (3 different rates), Fe only (3 different rates), or CPPA and Fe at each of the rates. The CPPA rates corresponded to 260, 520, and 1040 mg organic carbon (TOC) per hectare and the Fe rates corresponded to 130, 260, and 520 mg Fe per hectare. All pots were treated by foliar application immediately after transplanting. Ten days after the application, ten of the plants were harvested and assessed for vigor, leaf number, plant height, plant weight, root weight, and shoot weight. […] Additional application rates of CPPA and Fe were evaluated with similar synergistic results observed for the combination of CPPA with amounts of iron. Twenty days after transplanting, the remaining ten plants in each treatment were assessed.

[3] = foliar at transplanting, 10 days after treatment
[4] = 0 mg TOC/ha + 130 mg Fe/ha, 20 days after application
[5] = 0 mg TOC/ha + 520 mg Fe/ha, 10 days after application
[6] = 0 mg TOC/ha + 520 mg Fe/ha, 20 days after application

SMILES: [Cl-].[Na+] [NaCl]
- Leaf # [1, 3]: 5.3 e
- Plt. Ht. [1, 3]: 3.5 b
- Plt. Wt. [1, 3]: 2.7 c
- Root Wt. [1, 3]: 0.8 jc
- Shoot Wt. [1, 3]: 2.0 c
- Vigor [1, 3]: 2.4 b
- phytotoxicity of salt treatment alone ([1]; foliar, 10 days): significant amount of phytotoxicity
- SPAD ([1]; leaf conductance using a SPAD meter, foliar at transplanting, 10 days after treatment): 24.2 b

SMILES: O=S(=O)([O-])[O-].[Fe+2] [Fe, FeSO4]
- root development (plants and/or seeds): negative effect
- shoot development (plants and/or seeds): negative effect
- biological effect on plant, root and shoot weights versus UTC ([2]; Fe alone 520 mg Fe/ha, 20 days): apparent slightly negative biological effect
- Leaf # [2, 4]: 6.3 ab
- Vigor [2, 4]: 2.1 c
- Leaf # [2, 5]: 6.6 ab
- Plt. Ht. [2, 5]: 4.2 b
- Plt. Wt. [2, 5]: 4.9 b
- Root Wt. [2, 5]: 1.4 bc
- Shoot Wt. [2, 5]: 3.6 b
- Vigor [2, 5]: 3.8 b
- Leaf # [2, 6]: 5.1 b
- Plt. Ht. [2, 6]: 6.3 b
- Plt. Wt. [2, 6]: 4.5 b
- Root Wt. [2, 6]: 1.6 bc
- Shoot Wt. [2, 6]: 2.9 cd
- Vigor [2, 6]: 2.5 c
